In patent US20090325923A1, “NEW METHOD FOR THE TREATMENT OF INFLAMMATORY DISEASES” (TOPOTARGET SWITZERLAND SA, priority 2006, published 2009):

Assays:
TNFα = assay: Serum TNFα after LPS challenge (endotoxemia); type: in vivo, mouse; settings: 10 mg/kg ip 7 h before ip LPS, bled 90 min later, vs placebo
Experimental: (§1) Mice were treated with thioglycollate to elicit PEC, and then received 10 mg/kg FK866 or placebo by ip injection 7 h before ip challenge with LPS. Mean serum TNFα at 90 min+sem of 3 mice per group is shown. PEC were obtained by lavage and intracellular NAD was determined. Data are mean±sem of 3 mice per group.
(§2) This example illustrates that NAMPT inhibition reduces circulating TNFα during endotoxemia and correlates with diminished intracellular NAD in inflammatory cells. Naïve mice were treated ip with thioglycollate to elicit inflammatory cells, and then were treated ip with placebo or 10 mg/kg FK866 7 h before an intraperitoneal injection of LPS. Mice were bled 90 min later for evaluation of serum TNFα levels.

[1] = system: Peritoneal exudates cells (PEC); assay: Intracellular NAD in thioglycollate-elicited peritoneal exudate cells in vivo; parameters: species or system mouse
Experimental: Mice were treated with thioglycollate to elicit PEC, and then received 10 mg/kg FK866 by ip injection. PEC were obtained by lavage after different time points and intracellular NAD was determined. Data are mean±sem of 3 mice per group.
as §1
This example illustrates that FK866 reduces intracellular NAD level in inflammatory cells in vivo. Naïve mice were treated ip with thioglycollate to elicit inflammatory cells, and then FK866 was administered ip at 10 mg/kg. Peritoneal exudates cells (PEC) were obtained by lavage at different time points after treatment, and intracellular NAD levels were determined using an enzymatic assay.
as §2

[2] = system: human monocyte-derived dendritic cells; assay: LPS-stimulated cytokine secretion by ELISA in dendritic cells; type: cell-based
Experimental: (§3) Human monocytic cell line THP-1, human peripheral blood mononuclear cells (PBMC), human monocyte-derived dendritic cells, or mouse peritoneal macrophages were isolated and cultured overnight with increasing doses of FK866, and then stimulated with LPS for 6 h. The culture supernatants were tested for TNF and IL-6 content by ELISA
Human dendritic cells (mean and SD from 5 different donors) were incubated with 20 nM FK866 before stimulation with LPS or LPS+IFNγ. Pro-inflammatory cytokine levels in the supernatant were measured by ELISA after 16 h of culture.
as §3, with “This example describes the inhibition of pro-inflammatory cytokines production by the competitive small molecular weight compound inhibitor of NMPRT, ((E)-N-[4-(1-benzoylpiperidin-4-yl)butyl]-3-(pyridin-3-yl)acrylamide, designated FK866). Human” for “Human”, “ELISA.” for “ELISA”
This example describes the inhibition of other pro-inflammatory cytokine production, in addition to TNFα, IL-1β and IL-6, by FK866. Human dendritic cells from 5 different donors were cultured with FK866 before stimulation with LPS or LPS+IFNγ. The culture supernatants were tested for TNFα, IL-12 (p40 and p70), and IL-23 content by ELISA.

[3] = Toxicity and tolerability in treated CIA mice (weight, histopathology, ALT, hematology); type: in vivo, mouse
Experimental: Test mice (n=20) were twice daily treated ip with 10 mg/kg of FK866 from the first day onward of appearance of clinical arthritis (clinical score>1) during 14 days. Placebo mice (n=20) received vehicle only. Groups of animals were compared with respect to variation of their clinical scoring, and of their weight (d) by statistical analysis using the two-way ANOVA. A semi-quantitative histological evaluation was performed on the knee sections using a 4 points (0-3) scoring system to evaluate inflammatory infiltrate and synovial hyperplasia. (c) Circulating SAA levels: Sera from placebo- and FK866-treated CIA mice at day 14 (n=8 and n=7, respectively) were prepared and analyzed by SAA ELISA according to the manufacturer's instructions.

[4] = system: Human monocytic cell line THP-1; assay: LPS-stimulated cytokine secretion by ELISA in THP-1 cells; type: cell-based; settings: THP-1, overnight increasing doses of FK866, LPS 6 h
Experimental: (§4) Human monocytic cell line THP-1 was cultured overnight in the presence of graded doses of nicotinic acid (NA), a precursor of NAD, and then stimulated with lipopolysaccharide (LPS) from gram-negative bacteria for 2 h. The cell supernatant was tested for tumor necrosis factor (TNF) content by ELISA and the intracellular pool of NAD was measured by an enzymatic assay.
as §3
THP-1 cells were incubated in the presence of 10 nM FK866 and graded doses of NMN. Cells were further stimulated with LPS and intracellular NAD levels and TNFα secretion were determined using standard assays.
as §4, with “This example illustrates the direct relationship between NAD levels in cells and pro-inflammatory cytokine secretion. Human” for “Human”, “of” for “of graded doses of”, “acid,” for “acid (NA),”
as §3, with “This example describes the inhibition of pro-inflammatory cytokines production by the competitive small molecular weight compound inhibitor of NMPRT, ((E)-N-[4-(1-benzoylpiperidin-4-yl)butyl]-3-(pyridin-3-yl)acrylamide, designated FK866). Human” for “Human”, “ELISA.” for “ELISA”
This example illustrates that NAMPT is the only molecular target of FK866. […]

Human PBMC = assay: MTT cell viability assay in PBMC; type: cell-based; settings: overnight increasing doses of FK866, LPS 6 h
Experimental: (§5) (A) Human PBMC were isolated and cultured overnight with increasing doses of FK866, and then stimulated with LPS for 6 h. At the end of the culture, cell viability was assessed using the MTT (3-(4,5-Dimethylthiazol-2-yl)-2,5-diphenyltetrazolium bromide) assay.
as §5, with “This example illustrates that the inhibition of proinflammatory cytokine secretion induced by lowering intracellular NAD levels is not due to apoptosis induction.” for “(A)”

[5] = human dendritic cells from 5 donors, 20 nM FK866, LPS or LPS+IFNγ, 16 h

O=C(/C=C/c1cccnc1)NCCCCC1CCN(C(=O)c2ccccc2)CC1 [FK866, (E)-N-[4-(1-benzoylpiperidin-4-yl)butyl]-3-(pyridine-3-yl)-acrylamide]
circulating (serum) TNFα levels (TNFα): significant decrease
time of NAD nadir after injection ([1]; 10 mg/kg ip): 9 h
time of NAD recovery after injection ([1]; 10 mg/kg ip): around 14 h
intracellular NAD in PECs ([1]; 10 mg/kg ip 7 h before ip LPS, same mice, vs placebo): significant decrease
intracellular NAD in PEC (macrophages) in vivo ([1]; 10 mg/kg ip, lavage at different time points): significant time-dependent NAD depletion
IL-12 (p40 and p70) production [2, 5]: inhibited
IL-23 production [2, 5]: inhibited
TNFα production [2, 5]: inhibited
cytokine secretion (TNF and IL-6) ([2]; human monocyte-derived dendritic cells, overnight increasing doses of FK866, LPS 6 h): inhibited cytokine secretion in a dose-dependent fashion
tolerability ([3]; CIA mice, 10 mg/kg ip twice daily): well tolerated
signs of toxicity ([3]; CIA mice, 10 mg/kg ip twice daily, 14 days): no signs of toxicity
% LYMPHO, mean ([3]; hematology of treated CIA mice): 60%
% MONO, mean ([3]; hematology of treated CIA mice): 10.4%
% NEUTRO, mean ([3]; hematology of treated CIA mice): 29.7%
HCT, mean ([3]; hematology of treated CIA mice): 52.8%
HGB, mean ([3]; hematology of treated CIA mice): 14.1 g/dL
PLT, mean ([3]; hematology of treated CIA mice): 1688 10^3/mm^3
RBC, mean ([3]; hematology of treated CIA mice): 9.4 10^3/mm^3
WBC, mean ([3]; hematology of treated CIA mice): 11.5 10^6/mm^3
weight of the mice ([3]; placebo- vs FK866-treated groups): comparable
premature death ([3]; treated group): no premature death
hematological examination ([3]; treated vs control mice): similarity between the treated and control mice
histopathology of liver, spleen, lung, gut, kidney, inguinal lymph nodes and brain ([3]; vs control animals): no different from control animals
cytokine secretion (TNF and IL-6) [4]: inhibited cytokine secretion in a dose-dependent fashion
cell viability (MTT) (Human PBMC): not affected
